Here are results for 12 molecules from ChEMBL document CHEMBL5291721, “A preclinical secondary pharmacology resource illuminates target-adverse drug reaction associations of marketed drugs” (Nat Commun, 2023).

In test [1] the target is T1, Alpha-2A adrenergic receptor (Homo sapiens, UniProt P08913).
T1 sequence (P08913 whole entry): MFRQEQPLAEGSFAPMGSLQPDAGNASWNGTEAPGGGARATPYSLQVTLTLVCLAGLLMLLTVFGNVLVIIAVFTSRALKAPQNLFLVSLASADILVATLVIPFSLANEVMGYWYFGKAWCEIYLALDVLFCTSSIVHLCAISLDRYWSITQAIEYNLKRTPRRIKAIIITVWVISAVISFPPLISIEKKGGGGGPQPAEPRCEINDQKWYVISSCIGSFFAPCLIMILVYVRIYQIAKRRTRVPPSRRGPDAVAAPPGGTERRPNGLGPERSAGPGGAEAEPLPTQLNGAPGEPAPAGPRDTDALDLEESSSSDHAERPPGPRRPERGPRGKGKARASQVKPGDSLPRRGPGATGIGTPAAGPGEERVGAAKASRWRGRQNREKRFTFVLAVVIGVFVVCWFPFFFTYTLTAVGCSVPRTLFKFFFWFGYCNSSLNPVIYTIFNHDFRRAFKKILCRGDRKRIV
The class given is functional, cell-based.

The target of test [2] is Beta-1 adrenergic receptor (Homo sapiens, UniProt P08588). Format: functional.
Sequence of Beta-1 adrenergic receptor (P08588 whole entry): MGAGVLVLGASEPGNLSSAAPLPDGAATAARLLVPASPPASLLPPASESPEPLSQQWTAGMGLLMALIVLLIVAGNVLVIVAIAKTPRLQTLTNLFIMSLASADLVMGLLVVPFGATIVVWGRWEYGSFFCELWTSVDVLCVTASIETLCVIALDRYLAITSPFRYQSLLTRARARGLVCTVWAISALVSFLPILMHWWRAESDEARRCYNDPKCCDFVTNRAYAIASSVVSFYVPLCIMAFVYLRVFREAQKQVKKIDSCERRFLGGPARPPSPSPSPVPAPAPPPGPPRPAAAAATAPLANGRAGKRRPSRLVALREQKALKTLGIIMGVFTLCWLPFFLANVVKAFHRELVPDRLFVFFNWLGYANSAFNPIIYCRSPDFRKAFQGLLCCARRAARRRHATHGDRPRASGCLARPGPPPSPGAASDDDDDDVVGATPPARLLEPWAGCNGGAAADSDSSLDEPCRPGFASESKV
For the next test, the target named is Vasopressin V2 receptor (Homo sapiens, UniProt P30518).
Sequence of Vasopressin V2 receptor (P30518 whole entry): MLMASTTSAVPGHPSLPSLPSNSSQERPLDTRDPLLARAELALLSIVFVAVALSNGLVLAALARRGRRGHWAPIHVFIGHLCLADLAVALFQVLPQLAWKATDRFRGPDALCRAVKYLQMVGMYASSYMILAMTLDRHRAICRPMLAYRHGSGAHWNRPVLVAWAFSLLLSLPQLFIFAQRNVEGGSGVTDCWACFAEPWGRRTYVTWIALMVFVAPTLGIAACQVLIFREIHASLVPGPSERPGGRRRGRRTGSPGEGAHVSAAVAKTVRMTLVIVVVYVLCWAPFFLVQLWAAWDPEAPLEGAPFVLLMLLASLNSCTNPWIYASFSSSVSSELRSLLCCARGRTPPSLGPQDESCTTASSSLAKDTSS
In test [3] the target is T2, Muscarinic acetylcholine receptor M2 (Homo sapiens, UniProt P08172).
T2 sequence (P08172 whole entry): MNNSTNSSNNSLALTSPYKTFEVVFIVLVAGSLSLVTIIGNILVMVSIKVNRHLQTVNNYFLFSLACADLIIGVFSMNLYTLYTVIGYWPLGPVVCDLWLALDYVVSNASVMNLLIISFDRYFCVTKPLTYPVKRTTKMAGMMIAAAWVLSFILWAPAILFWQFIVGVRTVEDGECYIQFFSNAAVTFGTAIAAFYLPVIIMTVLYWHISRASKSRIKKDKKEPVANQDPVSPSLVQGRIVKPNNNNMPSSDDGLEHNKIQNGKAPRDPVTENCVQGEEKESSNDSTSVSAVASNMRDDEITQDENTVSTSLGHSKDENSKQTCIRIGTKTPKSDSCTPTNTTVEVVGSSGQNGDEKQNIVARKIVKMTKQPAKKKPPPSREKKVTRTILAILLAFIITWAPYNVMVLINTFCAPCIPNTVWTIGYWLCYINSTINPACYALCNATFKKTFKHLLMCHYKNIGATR
The class given is functional, cell-based.

Test [4] addresses Growth hormone secretagogue receptor type 1 (Homo sapiens, UniProt Q92847).
Test [5] concerns the target T3, 5-hydroxytryptamine receptor 1A (Homo sapiens, UniProt P08908).
T3 sequence (P08908 whole entry): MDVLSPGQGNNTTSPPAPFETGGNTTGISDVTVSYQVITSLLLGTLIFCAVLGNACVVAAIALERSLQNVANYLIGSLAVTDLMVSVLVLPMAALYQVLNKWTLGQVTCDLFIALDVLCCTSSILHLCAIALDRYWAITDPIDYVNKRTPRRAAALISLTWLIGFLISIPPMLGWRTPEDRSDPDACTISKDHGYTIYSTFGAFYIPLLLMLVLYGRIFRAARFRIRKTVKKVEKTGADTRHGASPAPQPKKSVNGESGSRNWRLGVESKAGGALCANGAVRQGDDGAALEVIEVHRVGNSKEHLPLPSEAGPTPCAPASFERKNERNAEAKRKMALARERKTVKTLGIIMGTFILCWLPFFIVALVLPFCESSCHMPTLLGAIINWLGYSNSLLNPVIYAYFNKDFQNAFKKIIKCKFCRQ
Format: functional, cell-based.

In test [6] the target is T4, Prostaglandin G/H synthase 1 (Rattus norvegicus, UniProt Q63921).
T4 sequence (Q63921 whole entry): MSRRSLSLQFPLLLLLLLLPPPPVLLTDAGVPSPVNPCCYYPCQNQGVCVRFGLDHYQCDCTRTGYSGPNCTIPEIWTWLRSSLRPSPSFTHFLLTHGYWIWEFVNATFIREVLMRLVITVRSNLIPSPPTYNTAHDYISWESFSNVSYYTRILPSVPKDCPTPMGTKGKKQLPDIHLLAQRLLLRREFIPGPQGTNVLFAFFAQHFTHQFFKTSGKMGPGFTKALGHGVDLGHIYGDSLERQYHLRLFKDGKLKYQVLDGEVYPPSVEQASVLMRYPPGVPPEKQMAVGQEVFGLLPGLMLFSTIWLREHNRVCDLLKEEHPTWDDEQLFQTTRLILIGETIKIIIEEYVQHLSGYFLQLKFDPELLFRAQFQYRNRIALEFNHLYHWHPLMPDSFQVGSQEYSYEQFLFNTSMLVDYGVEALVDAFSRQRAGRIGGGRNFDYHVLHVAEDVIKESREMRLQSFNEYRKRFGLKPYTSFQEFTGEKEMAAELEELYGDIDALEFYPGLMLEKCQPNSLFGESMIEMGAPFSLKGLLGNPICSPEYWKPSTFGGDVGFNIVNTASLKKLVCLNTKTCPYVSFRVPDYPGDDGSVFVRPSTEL
The class given is functional.

The target in another test is T5, Thromboxane A2 receptor (Homo sapiens, UniProt P21731).
T5 sequence (P21731 whole entry): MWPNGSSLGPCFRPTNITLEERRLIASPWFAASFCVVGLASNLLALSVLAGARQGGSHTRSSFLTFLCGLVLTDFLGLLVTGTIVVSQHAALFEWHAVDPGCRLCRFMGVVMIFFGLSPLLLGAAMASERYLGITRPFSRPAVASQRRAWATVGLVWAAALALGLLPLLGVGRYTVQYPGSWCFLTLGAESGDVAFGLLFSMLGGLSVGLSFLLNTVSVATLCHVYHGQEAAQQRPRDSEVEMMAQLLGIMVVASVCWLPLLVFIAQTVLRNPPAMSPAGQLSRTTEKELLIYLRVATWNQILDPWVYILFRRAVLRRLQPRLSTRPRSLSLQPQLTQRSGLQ

For test [7], the target named is cGMP-inhibited 3',5'-cyclic phosphodiesterase 3A (Homo sapiens, UniProt Q14432). The class given is functional.
Sequence of cGMP-inhibited 3',5'-cyclic phosphodiesterase 3A (Q14432 whole entry): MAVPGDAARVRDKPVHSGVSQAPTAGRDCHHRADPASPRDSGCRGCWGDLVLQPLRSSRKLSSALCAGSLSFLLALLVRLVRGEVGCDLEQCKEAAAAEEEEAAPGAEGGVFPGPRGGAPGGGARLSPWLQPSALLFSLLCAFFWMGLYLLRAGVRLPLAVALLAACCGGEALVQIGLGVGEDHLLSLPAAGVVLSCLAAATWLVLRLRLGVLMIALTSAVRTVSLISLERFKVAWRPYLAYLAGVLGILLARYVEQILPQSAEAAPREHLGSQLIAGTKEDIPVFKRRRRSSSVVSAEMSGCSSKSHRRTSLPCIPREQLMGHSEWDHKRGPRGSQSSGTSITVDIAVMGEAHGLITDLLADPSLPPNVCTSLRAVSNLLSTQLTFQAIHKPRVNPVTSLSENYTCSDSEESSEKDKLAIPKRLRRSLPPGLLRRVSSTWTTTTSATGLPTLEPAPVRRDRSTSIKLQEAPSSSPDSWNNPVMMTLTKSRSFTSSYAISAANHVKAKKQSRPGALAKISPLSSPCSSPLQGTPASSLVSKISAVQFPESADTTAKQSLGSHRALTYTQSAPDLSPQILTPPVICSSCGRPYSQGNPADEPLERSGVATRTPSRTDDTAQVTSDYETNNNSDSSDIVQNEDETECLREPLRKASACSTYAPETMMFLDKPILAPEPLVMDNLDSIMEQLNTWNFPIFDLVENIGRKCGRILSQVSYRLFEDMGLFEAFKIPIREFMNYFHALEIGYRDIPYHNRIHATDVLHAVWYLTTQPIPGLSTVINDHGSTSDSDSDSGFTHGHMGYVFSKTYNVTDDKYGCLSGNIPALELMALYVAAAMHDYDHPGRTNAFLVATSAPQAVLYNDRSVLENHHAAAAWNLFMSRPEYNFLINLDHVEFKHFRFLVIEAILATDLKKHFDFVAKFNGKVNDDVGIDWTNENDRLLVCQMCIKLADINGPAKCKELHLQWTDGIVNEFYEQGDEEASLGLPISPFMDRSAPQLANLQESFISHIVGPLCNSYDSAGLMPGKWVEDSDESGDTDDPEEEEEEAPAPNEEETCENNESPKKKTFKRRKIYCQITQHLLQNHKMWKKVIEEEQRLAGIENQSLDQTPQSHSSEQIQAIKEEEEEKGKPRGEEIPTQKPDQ
Another test addresses Histamine H3 receptor (Homo sapiens, UniProt Q9Y5N1).
Also: assay procedure not described here.

Sequence of Histamine H3 receptor (Q9Y5N1 whole entry): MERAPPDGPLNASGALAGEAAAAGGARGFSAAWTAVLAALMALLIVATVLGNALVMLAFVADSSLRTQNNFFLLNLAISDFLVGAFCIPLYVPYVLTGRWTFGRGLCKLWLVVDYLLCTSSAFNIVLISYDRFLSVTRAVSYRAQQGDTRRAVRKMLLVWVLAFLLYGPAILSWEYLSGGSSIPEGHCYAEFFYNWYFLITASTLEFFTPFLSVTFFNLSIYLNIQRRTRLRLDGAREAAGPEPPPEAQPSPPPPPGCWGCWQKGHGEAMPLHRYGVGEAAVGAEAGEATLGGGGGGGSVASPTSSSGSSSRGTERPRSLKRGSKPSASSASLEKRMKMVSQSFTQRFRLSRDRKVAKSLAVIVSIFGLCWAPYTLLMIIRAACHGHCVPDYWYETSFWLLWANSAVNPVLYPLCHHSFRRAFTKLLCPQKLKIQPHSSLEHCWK
Sequence of Growth hormone secretagogue receptor type 1 (Q92847 whole entry): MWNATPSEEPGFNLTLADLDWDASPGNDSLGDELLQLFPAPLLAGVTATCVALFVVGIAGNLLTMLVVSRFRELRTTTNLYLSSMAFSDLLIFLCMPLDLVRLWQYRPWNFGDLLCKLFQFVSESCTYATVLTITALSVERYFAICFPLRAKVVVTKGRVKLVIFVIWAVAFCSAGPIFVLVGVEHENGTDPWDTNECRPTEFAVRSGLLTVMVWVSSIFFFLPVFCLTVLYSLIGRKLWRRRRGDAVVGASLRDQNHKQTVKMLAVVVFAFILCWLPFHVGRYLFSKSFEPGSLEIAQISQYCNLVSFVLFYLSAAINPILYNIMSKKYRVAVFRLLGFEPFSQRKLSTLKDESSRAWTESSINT

What is called AC50 is the concentration at which the activity in the assay is half-maximal. In the case of `CCCCCCNC(=O)n1cc(F)c(=O)[nH]c1=O` [CARMOFUR], the AC50 (in test [1]; in test [2]; on Vasopressin V2 receptor; in test [3]; in test [4]; in [5]) was > 30 µM each time. Besides, the AC50 (in test [6]; at Thromboxane A2 receptor; in test [7]; at Histamine H3 receptor) was > 30 µM throughout.
As to `CC(C)(C)NCC(O)c1cc(Cl)c(N)c(Cl)c1` (stereo not given) [CLENBUTEROL], the AC50 in [1] was > 30 µM; in test [2], 0.112 µM; at Vasopressin V2 receptor it was > 30 µM; in test [3] it was > 30 µM; in test [4], > 30 µM; in test [5], 3.02 µM. Further, the AC50 (in test [6]; on Thromboxane A2 receptor; in test [7]; at Histamine H3 receptor) was > 30 µM in each case.
Consider `Clc1ccc2c(c1)C(c1ccccc1)=NCc1nncn1-2` [ESTAZOLAM], for which the AC50 is > 10 µM in [1]; > 10 µM in test [2]; > 30 µM at Vasopressin V2 receptor; > 10 µM in [3]; > 30 µM in [4]; > 10 µM in [5]. Also, the half-maximal activity concentration (AC50) is > 30 µM in test [6], > 30 µM on Thromboxane A2 receptor, > 30 µM in [7] and > 10 µM on Histamine H3 receptor.
For `CC(=O)OCC(CCn1cnc2cnc(N)nc21)COC(C)=O` [FAMCICLOVIR], the concentration at half-maximal activity (AC50) in test [1] was > 10 µM; in test [2], > 10 µM; at Vasopressin V2 receptor, > 30 µM; in test [3] it was > 10 µM; in test [4], > 30 µM; in [5], > 10 µM. For the same molecule, the half-maximal activity concentration (AC50) in [6] is > 30 µM; at Thromboxane A2 receptor, > 30 µM; in [7], > 30 µM; at Histamine H3 receptor, > 10 µM.
Regarding `Clc1ccc(C(Cn2ccnc2)OCc2ccc(Sc3ccccc3)cc2)c(Cl)c1` (stereo not given) [FENTICONAZOLE], the AC50 (in test [1]; in test [2]; on Vasopressin V2 receptor; in test [3]; in test [4]; in [5]) was > 30 µM in each case. In addition, the AC50 in [6] was 30 µM; at Thromboxane A2 receptor, > 30 µM; in test [7], > 30 µM; at Histamine H3 receptor, > 30 µM.
`Nc1ccn([C@@H]2O[C@H](CO)[C@@H](O)C2(F)F)c(=O)n1` [GEMCITABINE]: the AC50 in test [1] was > 10 µM; in test [2], > 30 µM; on Vasopressin V2 receptor, > 30 µM; in [3], > 10 µM; in test [4], > 30 µM; in test [5] it was > 10 µM. Besides, the AC50 in test [6] was > 30 µM; at Thromboxane A2 receptor, > 30 µM; in test [7], 11 µM; on Histamine H3 receptor it was > 10 µM.
In the case of `COC1=C(OC)C(=O)C(CCCCCCCCCCO)=C(C)C1=O` [IDEBENONE], the concentration at half-maximal activity (AC50) was > 10 µM in test [1]; > 10 µM in test [2]; 10.9 µM on Vasopressin V2 receptor; > 10 µM in test [3]; > 30 µM in test [4]; > 10 µM in test [5]. Further, the AC50 in test [6] was > 30 µM; at Thromboxane A2 receptor, 31.2 µM; in test [7], 6.4 µM; on Histamine H3 receptor, > 10 µM.
With `Nc1nc2c(c(=O)[nH]1)N(C=O)C(CNc1ccc(C(=O)N[C@@H](CCC(=O)O)C(=O)O)cc1)CN2` (stereo not given in full) [LEUCOVORIN], the AC50 (in test [1]; in test [2]; at Vasopressin V2 receptor; in test [3]; in [4]; in [5]) was > 30 µM throughout. The AC50 (in test [6]; on Thromboxane A2 receptor; in test [7]; at Histamine H3 receptor) was > 30 µM throughout.
As for `O=C1CN=C(c2ccccc2)c2cc(Cl)ccc2N1` [NORDAZEPAM], the AC50 is > 10 µM in test [1]; > 10 µM in test [2]; > 30 µM on Vasopressin V2 receptor; > 10 µM in test [3]; > 30 µM in test [4]; > 10 µM in test [5]. Also, the AC50 in test [6] was > 30 µM; at Thromboxane A2 receptor, > 30 µM; in test [7], > 30 µM; on Histamine H3 receptor, > 10 µM.
Consider `CC(C)CC(N(C)C)C1(c2ccc(Cl)cc2)CCC1` (stereo not given) [SIBUTRAMINE], for which the AC50 in [1] is 30 µM; in test [2], > 10 µM; at Vasopressin V2 receptor, > 30 µM; in test [3], 19 µM; in test [4], > 30 µM; in [5], > 30 µM. Besides, the AC50 was > 30 µM in test [6], > 30 µM on Thromboxane A2 receptor, > 30 µM in test [7] and > 10 µM at Histamine H3 receptor.
For `[H]/N=C(/N)N[C@H]1[C@H](O)[C@@H](O)[C@H](O[C@@H]2O[C@@H](C)[C@](O)(C=O)[C@H]2O[C@@H]2O[C@@H](CO)[C@H](O)[C@@H](O)[C@@H]2NC)[C@@H](N/C(N)=N\[H])[C@@H]1O` [STREPTOMYCIN], the AC50 (in [1]; in test [2]; at Vasopressin V2 receptor; in [3]; in test [4]; in test [5]) was > 30 µM each time. For the same molecule, the AC50 (in test [6]; at Thromboxane A2 receptor; in test [7]; at Histamine H3 receptor) was > 30 µM in each case.
As to `CN1[C@@H]2CC[C@H]1C[C@@H](OC(=O)c1c[nH]c3ccccc13)C2` [TROPISETRON], the AC50 (in test [1]; in test [2]; at Vasopressin V2 receptor; in test [3]; in test [4]; in test [5]) was > 30 µM each time. The AC50 (in test [6]; at Thromboxane A2 receptor; in [7]; on Histamine H3 receptor) was > 30 µM each time.
